Assay results reported in patent US20260144769A1, “4-PHENYLBUTYRATE RESTORED GABA UPTAKE AND REDUCED SEIZURES IN SLC6A1 VARIANT-MEDIATED DISORDERS” (Vanderbilt University, priority 2022, published 2026).

Key:
wildtype GAT-1 = target: T1, wildtype GAT-1 (Rattus norvegicus, UniProt P23978); experiment: 3H GABA uptake, HEK293T cells expressing wildtype GAT-1^YFP; assay type: cell-based; details: for GABA uptake activity vs. wildtype 0: HEK293T, wildtype GAT-1^YFP, normalized to DMSO treated
T1 construct: The coding region of rGAT-1 was inserted into pEYFP-C1 (Clontech, Palo Alto, CA); expressed in transfected cells; host or cells: HEK293T cells (A1); astrocytes from corrected human iPSCs (A21)
Method: (§1) GABA uptake activity was measured by the high-throughput 3H radio-labeling GABA uptake on a liquid scintillator with QuantaSmart. […] HEK293T cells were transfected with the wildtype or the mutant GAT-1^YFP cDNAs alone for 48 hr. […] HEK293T cells were transfected with the wildtype GAT-1^YFP alone or in mixture of the wildtype or the mutant cDNAs for 48 hr. In the mixed condition, the ratio of the wildtype GAT-1 with pcDNA or the mutant cDNAs are 1:1 with the total cDNA amount of 0.5 μg. […] Both wt and the mutant were normalized to its own DMSO treated conditions. 966 stands for the wildtype treated with CI-966 (50 μM) while 711 stands for NNC-711 (35 μM). (N=4-7 different transfections. In FIG. 4A and FIG. 4B, *P<0.05, **P<0.01, ***p<0.001 vs. wt 0. In FIG. C and FIG. 4D, *P<0.05, **P<0.01, ***p<0.001 vs. its own DMSO treated. In FIG. 4C, ns stands for no significance. One-way analysis of variance (ANOVA) and Newman-Keuls test. Values were expressed as mean±S.E.M.
The plasmid cDNA encoding enhanced yellow fluorescent protein (EYFP)-tagged rat GAT-1 has been previously described. The coding region of rGAT-1 was inserted into pEYFP-C1 (Clontech, Palo Alto, CA). QuikChange Site-directed Mutagenesis kit was utilized to introduce the GAT-1 variants into a wildtype GAT-1 plasmid. The product was then amplified via polymerase chain reaction, transformed using DH5a competent cells, and plated. A clone was chosen and grown overnight. All the GAT-1 variants were confirmed by DNA sequencing. Both the wildtype and the variant cDNAs were prepared with Qiagen Maxiprep kit.
Human embryonic kidney cells were cultured as monolayers in 100 mm^2 dishes. Cells were cultured in Dulbecco's Modified Eagle's Medium supplemented with 10% FBS and 1% penicillin/streptomycin in 37° C. in 5% CO2/95% air. Cells were maintained in culture medium until appropriate confluency for experimentation.
Briefly, cells were cultured in […] dishes for 3 days before the GABA uptake experiment in DMEM with 10% fetal bovine serum and 1% penicillin/streptomycin. The cells were then transfected with equal amounts of the wildtype or the mutant GAT-1 cDNAs (1 μg) for each condition at 24 hrs or 48 hrs after plating. GABA uptake assay was carried out 48 hrs after transfection. The cells were incubated with preincubation solution for 15 min and then incubated with preincubation solution containing 1 μci/mL 3H GABA and 10 μM unlabeled GABA for 30 min at room temperature. After washing, the cells were lysed with 0.25 N NaOH for 1 hr. Glacial acetic acid was added, and lysates were then determined on a liquid scintillator with QuantaSmart. The flux of GABA (pmol/μg/min) was averaged with at least triplets for each condition at each transfection. The average counting was taken as n=1. […]

[1] = target: T2, wildtype GAT-1 + GAT-1(E16X) (Rattus norvegicus, UniProt P23978); experiment: 3H GABA uptake, HEK293T, mixture of wildtype and mutant cDNAs ("heterozygous"); assay type: cell-based; details: wildtype:E16X cDNAs 1:1; PBA 2 mM, 24 hrs
T2 construct: expressed in transfected cells; host or cells: HEK293T cells
Method: as §1
The plasmid cDNA encoding enhanced yellow fluorescent protein (EYFP)-tagged rat GAT-1 has been previously described. […]
Briefly, cells were cultured in […] dishes for 3 days before the GABA uptake experiment in DMEM with 10% fetal bovine serum and 1% penicillin/streptomycin. […] Glacial acetic acid was added, and lysates were then determined on a liquid scintillator with QuantaSmart. […]

GABA uptake activity vs. wildtype 0 (wildtype GAT-1; PBA 4 mM as printed): 1.24±0.09
GABA uptake activity vs. wildtype 0 (wildtype GAT-1; PBA for 24 hrs): 1.24±0.05
cell loss (wildtype GAT-1; cells treated with PBA at 4 mM and/or 48 hrs): occasional cell loss
GABA uptake normalized to its own DMSO treated condition [1]: 1.149±0.025
SMILES: O=C(O)CCCc1ccccc1 [PBA, 4-phenylbutyric acid]
GABA uptake activity, concentration and time dependence (wildtype GAT-1; PBA 0 to 4 mM, 0 to 48 hrs): concentration and time dependently increased
